# Assay results: publication PMC11698746 (Scientific Reports, 2025)
# Where two headings read alike, the source gives them in different places.
# How the values were obtained:
# intestinal microflora = assay: Metabolism of HLF by intestinal microflora; type: in vitro ADME, rat; conditions: anaerobic incubation 37 °C, up to 48 h
# [1] = cited from earlier work
# [2] = Transport of flavonoids in HLF across Caco-2 cell monolayer; type: in vitro ADME; conditions: human, Caco-2, Papp, Caco-2, range over HLF 50, 100 and 200 µg·mL^−1
# rat small intestine = assay: In situ recirculating intestinal perfusion; type: in vivo; conditions: different concentrations of HLF
# [3] = In situ recirculating intestinal perfusion; type: in vivo; conditions: rat, other: in situ recirculating intestinal perfusion, absorption potential (Papp), rat small intestine, different concentrations of HLF
# [4] = Pharmacokinetics of HLF via oral administration; type: in vivo, rat; conditions: after intragastric administration of HLF
# rat intestine = type: in vivo; conditions: for detection in the effluent fluid: rat single-pass intestinal perfusion after HLF via jugular vein
metabolism by the intestinal microflora (intestinal microflora),Papp [2],absorption extent (A) (rat small intestine),absorption potential (Papp) (rat small intestine),Papp at 3 h [3],detection in the rat plasma and bile [4],detection in the effluent fluid (rat intestine),reduction of cumulative efflux amount (rat intestine; in the presence of VP vs absence),SMILES,Papp ([1]; previous study),Papp ([1]; other study)
metabolized to QUE,0.226 to 0.383 ×10⁻⁶ cm/s,11.40 ± 0.98 %·h^−1,4.27 ± 0.36 ×10^−7 cm·sec^−1,0.255 to 0.427 ×10⁻⁶ cm/s,cannot be detected,hardly detected,,"O=c1c(O[C@@H]2O[C@H](CO)[C@H](O)[C@H](O)[C@H]2O)c(-c2ccc(O)c(O)c2)oc2cc(O)cc(O)c12 [HP, hyperoside]",1.87 ± 1.11 ×10^−7 cm·sec^−1,
metabolized to QUE,0.228 to 0.304 ×10⁻⁶ cm/s,,,0.031 to 0.141 ×10⁻⁶ cm/s,cannot be detected,hardly detected,,"C[C@@H]1O[C@@H](OC[C@H]2O[C@@H](Oc3c(-c4ccc(O)c(O)c4)oc4cc(O)cc(O)c4c3=O)[C@H](O)[C@@H](O)[C@@H]2O)[C@H](O)[C@H](O)[C@H]1O [RUT, rutin]",,1.03 ± 0.13 ×10^−5 cm·sec^−1
,0.218 to 0.383 ×10⁻⁶ cm/s,,,0.031 to 0.141 ×10⁻⁶ cm/s,cannot be detected,detected,47.63%,"O=c1cc(-c2ccc(O)cc2)oc2c([C@@H]3O[C@H](CO)[C@@H](O)[C@H](O)[C@H]3O)c(O)cc(O)c12 [VIT, vitexin]",,
